Laboratory results: PubChem BioAssay (NCI)
Several values for one entry are separate records, joined by “and”; a condition that tells them apart may be missing. Equal entries are not always repeated.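 Where inhibition never reached the appropriate level, the endpoint shown equals the highest concentration tested. Otherwise, values were interpolated linearly from a five-concentration, 48-hour dose response in 96-well plates. Here, GI50 denotes the concentration required for 50% inhibition of growth. TGI marks complete inhibition of growth.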

Tests used:
Experiment in all cases: inhibition of tumour cell growth, NCI panel, 48 h
OVCAR-8 ovarian = system: OVCAR-8 ovarian
UO-31 renal = system: UO-31 renal
HS 578T breast = system: HS 578T breast
IGROV1 ovarian = system: IGROV1 ovarian
HCT-116 colon = system: HCT-116 colon
A549 NSCLC = system: A549 NSCLC
ACHN renal = system: ACHN renal
COLO 205 colon = system: COLO 205 colon
RXF 393 renal = system: RXF 393 renal
SR leukemia = system: SR leukemia

Structure (SMILES)	GI50 (OVCAR-8 ovarian) [µM]	TGI (OVCAR-8 ovarian) [µM]	GI50 (UO-31 renal) [µM]	TGI (UO-31 renal) [µM]	GI50 (HS 578T breast) [µM]	TGI (HS 578T breast) [µM]	GI50 (IGROV1 ovarian) [µM]	TGI (IGROV1 ovarian) [µM]	GI50 (HCT-116 colon) [µM]	TGI (HCT-116 colon)	GI50 (A549 NSCLC) [µM]	TGI (A549 NSCLC) [µM]	GI50 (ACHN renal) [µM]	TGI (ACHN renal) [µM]	GI50 (COLO 205 colon)	TGI (COLO 205 colon) [µM]	TGI (RXF 393 renal) [µM]	TGI (SR leukemia)	GI50 (SR leukemia) [µM]	GI50 (RXF 393 renal) [µM]
Cc1[nH]n(-c2cccc(Cl)c2)c(=O)c1/C=C1\C=c2ccccc2=CC1=O	> 100	> 100	> 100	> 100	32.6	> 100	27.1	> 100	> 100	> 100 µM	> 100	> 100	17	> 100	> 100 µM	> 100	–	–	–	–
Cc1ccc(S(=O)(=O)CC2(Br)CCc3ccccc3C2=O)cc1 (stereo not drawn)	–	64.8	–	50.5	–	> 100	–	41	–	> 100 µM	–	> 100	–	38.2	–	43.6	39	–	–	–
COC(CC1(OC)OC(=O)C=C1N)OC (stereo not drawn)	–	> 100	–	> 100	–	–	–	> 100	–	> 100 µM	–	> 100	–	> 100	–	> 100	–	> 100 µM	–	–
CCCCCCSc1nc(COC(=O)NC)c(COC(=O)NC)n1C	–	> 100	–	> 100	–	> 100	–	> 100	–	> 100 µM	–	> 100	–	> 100	–	> 100	–	> 100 µM	–	–
CC1CC(c2ccc(Cl)c(Cl)c2)=Nc2ccccc2S1 (stereo not drawn)	–	> 100	–	> 100	–	–	–	> 100	–	> 100 µM	–	> 100	–	> 100	–	> 100	> 100	> 100 µM	–	–
NC(=O)c1cc([N+](=O)[O-])cc([N+](=O)[O-])c1	–	> 100	–	> 100	–	–	–	> 100	–	> 100 µM	–	> 100	–	> 100	–	> 100	> 100	> 100 µM	–	–
COC(=O)C1=C(\O)C[C@@]2(C)CC[C@@H](C(=O)OC)C2C/C=C\1C(=O)OC (stereo partly drawn)	–	> 100	–	> 100	–	–	–	> 100	–	> 100 µM	–	> 100	–	> 100	–	> 100	> 100	> 100 µM	–	–
O=C(/C=C/c1ccc(O)cc1)c1cc(Cl)ccc1O	–	> 100	–	70.5	–	–	–	> 100	–	58 µM	–	> 100	–	> 100	–	> 100	88.9	54.6 µM	–	–
C#Cc1ccc(-n2c(/C=C/c3ccc4ccccc4c3)nc3ncccc3c2=O)cc1	3.05	> 100	3.11	> 100	7.62	> 100	2.92	> 100	–	–	2.73	> 100	2.57	> 100	–	–	5.47	> 100 µM	1.4	1.79
CC1COCCN1CC#CCOC(=O)c1cc2ccccc2oc1=O (stereo not drawn)	> 100	> 100	> 100	> 100	62.4	> 100	> 100	> 100	> 100	> 100 µM	> 100	> 100	> 100	> 100	> 100 µM	> 100	> 100	–	–	> 100
O=C(CSc1ncc(-c2ccccc2)n1-c1ccccc1)Nc1ccc(-c2nc3ccccc3s2)cc1	–	–	–	–	4.89	80.8	2.72	> 100	3.68	> 100 µM	–	–	14.5	> 100	> 100 µM	> 100	47.4	–	–	11.2
c1ccc2c(c1)N=C(c1ccc3ccccc3c1)CC(c1cccc3ccccc13)S2 (stereo not drawn)	–	> 100	–	> 100	–	–	–	> 100	–	–	–	> 100	–	> 100	–	> 100	> 100	–	–	–
COc1ccc2c(c1)C(=O)c1c-2c(N2CCN(C(=O)CCNCCNCCO)CC2)nc2ccccc12	19.5	48.3	13.9	31.4	16.1	35.4	12.7	45.2	2.36	5.52 µM	13.2	28	16	30.8	12.4 µM	29.8	–	–	–	–
N#CC1C(=O)NC(=O)C1=O (stereo not drawn)	–	> 100	–	> 100	–	–	–	> 100	–	> 100 µM	–	–	–	> 100	–	> 100	> 100	–	–	–
CCCCCCCCCCCC(=O)OC(COC(N)=O)COc1ccc(Cl)cc1 (stereo not drawn)	–	33.6	–	> 100	–	–	–	81.2	–	30 µM	–	36.8	–	> 100	–	37.5	43.9	–	–	–
COC(=O)NC(=O)c1cn(C2CCCCC2)c(=O)[nH]c1=O	–	> 100	–	> 100	–	–	–	> 100	–	> 100 µM	–	> 100	–	> 100	–	> 100	> 100	> 100 µM	–	–
O=C1N=C(Nc2nc(-c3csc(NC4=NC(=O)/C(=C\c5ccc(Cl)cc5)S4)n3)cs2)S/C1=C/c1ccc(Cl)cc1	8.99	30.2	17.6	> 50	> 50	> 50	19.8	> 50	–	–	10.5	> 50	11.2	48.5	29.9 µM	> 50	> 50	–	–	11.6
COc1cc(/C=C/c2ccccn2)cc(OC)c1OC	–	> 10	–	> 10	–	> 10	–	> 10	–	> 10 µM	–	> 10	–	> 10	–	> 10	> 10	–	–	–
COc1ccc2c(c1)N(CCO)C1=C(C(=O)OC1)C2c1ccc(OC)c(OC)c1 (stereo not drawn)	3.34	> 100	4.65	> 100	2.88	9.82	3.46	> 100	2.64	15.3 µM	3.86	> 100	6.3	> 100	2.53 µM	5.93	–	> 100 µM	3.68	–

Structure (SMILES)	GI50 (OVCAR-8 ovarian) [µM]	TGI (OVCAR-8 ovarian) [µM]	GI50 (UO-31 renal) [µM]	TGI (UO-31 renal) [µM]	GI50 (HS 578T breast) [µM]	TGI (HS 578T breast) [µM]	GI50 (IGROV1 ovarian) [µM]	TGI (IGROV1 ovarian) [µM]	GI50 (HCT-116 colon) [µM]	TGI (HCT-116 colon)	GI50 (A549 NSCLC) [µM]	TGI (A549 NSCLC) [µM]	GI50 (ACHN renal) [µM]	TGI (ACHN renal) [µM]	GI50 (COLO 205 colon)	TGI (COLO 205 colon) [µM]	TGI (RXF 393 renal) [µM]	TGI (SR leukemia)	GI50 (SR leukemia) [µM]	GI50 (RXF 393 renal) [µM]
O=C(O)c1cn(C2CC2)c2cc(N3CCN(Cc4ccc5ccccc5c4O)CC3)c(F)cc2c1=O	3.74	> 100	–	–	2.3	6.9	4.91	> 100	–	–	3.29	> 100	–	–	3.27 µM	> 100	5.64	–	–	2.29
CC1(C)CC(N2CCN(C3CC(C)(C)NC(C)(C)C3)CC2)CC(C)(C)N1	–	> 100	–	> 100	–	–	–	> 100	–	> 100 µM	–	> 100	–	> 100	–	–	> 100	> 100 µM	–	–
NCC1(N2CCOCC2)C2CCCC21CNc1ccccc1 (stereo not drawn)	–	> 100	–	> 100	–	–	–	> 100	–	> 100 µM	–	> 100	–	> 100	–	> 100	> 100	> 100 µM	–	–
O=C1c2ccccc2C(=O)c2c1ccc1c2N=C(c2ccc(Br)cc2)CC(c2cccc3ccccc23)N1 (stereo not drawn)	–	> 100	–	> 100	–	–	–	> 100	–	–	–	> 100	–	> 100	–	> 100	> 100	> 100 µM	–	–
N#Cc1c(N)c(C#N)c2c(c1-c1ccc(Cl)cc1)COc1ccc(F)cc1-2	> 50	> 50	10.9	> 50	–	–	6.24	30.5	–	–	42.6	> 50	19.7	> 50	> 50 µM	> 50	> 50	> 50 µM	> 50	> 50
NC(=O)c1ncn(Cc2ccccc2)c1CNC(N)=S	–	> 100	–	> 100	–	–	–	> 100	–	–	–	> 100	–	> 100	–	> 100	> 100	> 100 µM	–	–
Cc1cc2c(cc1Cl)SC(C(=O)c1ccc(Cl)c(Cl)c1)NS2(=O)=O (stereo not drawn)	44.5	> 100	42.2	> 100	70	> 100	40.9	> 100	21.9	40.8 µM	45.2	> 100	29.8	85.6	21 µM	44	–	81.8 µM	31.4	–
CC1(C)OC(=O)C(=Cc2ccc([N+](=O)[O-])s2)C(=O)O1	–	31.3	–	23.6	–	–	–	–	–	9.84 µM	–	> 100	–	27.3	–	31	–	6.31 µM	–	–
CCN(CCO)CCCOc1ccc2c(Nc3cc(CC(=O)Nc4cccc(F)c4)[nH]n3)ncnc2c1	23.8	> 100	> 100	> 100	8.15	> 60.5	26.1	> 93.1	9.63	34.6 µM and > 10 µM	20.5	> 100	> 100	> 100	0.034 µM and 0.0244 µM	1.22	–	28 µM and > 3.87 µM	–	–
O=C(NC1C(=O)NNC1c1ccccc1Cl)c1ccccc1 (stereo not drawn)	–	> 100	–	> 100	–	–	–	> 100	–	> 100 µM	–	> 100	–	> 100	–	> 100	> 100	> 100 µM	–	–
ClCCCCOC1CCCCO1 (stereo not drawn)	–	> 100	–	> 100	–	–	–	> 100	–	> 100 µM	–	> 100	–	> 100	–	> 100	> 100	–	–	–
C[C@H](c1ccccc1)N(CCC(=O)O)C(=O)CCN(C(=O)CCN(C(=O)CCN[C@H](C)c1ccccc1)[C@H](C)c1ccccc1)[C@H](C)c1ccccc1	> 100	> 100	> 100	> 100	> 100	> 100	> 100	> 100	> 100	> 100 µM	> 100	> 100	> 100	> 100	> 100 µM	> 100	> 100	–	–	> 100
Cn1cnc([N+](=O)[O-])c1Sc1nc2ccc([N+](=O)[O-])cc2[nH]1	–	39.2	–	67.6	–	–	–	58.6	–	57.8 µM	–	> 100	–	> 100	–	23.4	40.1	41.5 µM	–	–
N=C1C(c2nc3ccccc3s2)=C(O)CN1c1cc(Cl)cc(Cl)c1	> 100	> 100	91.3	> 100	16.1	64.8	–	–	87.2	> 100 µM	> 100	> 100	> 100	> 100	> 100 µM	> 100	–	> 100 µM	> 100	–
COc1cc(NC(C)CCCN2C(=O)c3ccccc3C2=O)c2ncccc2c1OC (stereo not drawn)	34.9	> 100	36.7	> 100	24.5	97.3	18.6	> 100	31.2	> 100 µM	33	> 100	29.9	> 100	31.9 µM	> 100	–	> 100 µM	23.7	–
COc1cccc(/C=C\c2ccnc3ccccc23)c1	–	> 10	–	> 10	–	> 10	–	> 10	–	> 10 µM	–	> 10	–	> 10	–	> 10	> 10	–	–	–
Cc1ccc(NC(=O)C(=O)CC(=O)c2ccccc2)cc1C	–	> 100	–	> 100	–	–	–	> 100	–	> 100 µM	–	> 100	–	> 100	–	> 100	> 100	–	–	–
Fc1ccc(-c2nn3c(COc4ccc(Cl)cc4Cl)nnc3s2)cc1Oc1ccccc1	27.8	> 100	30	> 100	16.4	47.5	26.2	92.6	13.2	25.9 µM	20.7	62.2	14.1	27.3	19.6 µM	> 100	45.9	–	–	18.7
O=C(c1ccco1)c1c(C(F)(F)F)n([O-])c2ccc(F)cc2[n+]1=O	0.558	1.17	1.6	3	1.84	7.08	1.23	2.78	0.824	2.41 µM	3.08	9.87	1.33	2.62	0.524 µM	1.36	2.14	–	–	0.759
